Results: patent publication US10562912B2 (C&C Research Laboratories, priority 2013, dated 2020)

What was measured:
Type in all cases: cell-based
MDA-MB-231 = assay: Cell growth inhibition assay, breast cancer cell line MDA-MB-231; conditions: Homo sapiens; MDA-MB-231 breast cancer cell line, 5,000 cells/well
Experimental: The inhibitory effects of the compounds of the present invention against the growth of cancer cells were evaluated as shown below. The cancer cell lines including stomach cancer cell line (AGS), breast cancer cell lines (MDA-MB-231, MDA-MB-468, and BT-549), prostate cancer cell lines (LNCaP and DU-145), colon cancer cell line (HCT116), ovarian cancer cell line (SW626), liver cancer cell line (Hep3B), kidney cancer cell line (ACHN), lung cancer cell line (NCI-H23) and blood cancer cell lines (HEL92.1.7 and U266) were cultured under the protocol provided by each supplier. A medium supplemented with 10 ng/mL of IL-6 was used for LNCaP, a prostate cancer cell line, when treated with a drug. Each type of cells to be used in experiments were sub-cultured in a 96-well plate by counting the exact number of cells using Tali™ Image-based Cytometer (Life Technologies). In a 96-well plate, AGS, HCT116, and DU-145 were employed with 3,000 cells/well; NCI-H23, SW626, Hep3B, ACHN, BT-549, MDA-MB-231, HEL92.1.7, and U266 were employed with 5,000 cells/well; and LNCaP and MDA-MB-468 were employed with 10,000 cells/well. The cells were treated with the compounds listed in Examples which were diluted in various concentrations. Upon completion of the compounds treatment, AGS, HCT116, SW626, DU145, NCI-H23, Hep3B, ACHN, BT-549, LNCaP, HEL92.1.7, and U266 cells were cultured at 37° C. under 5% CO2 for from 72 to 96 hours, and MDA-MB-231 and MDA-MB-468 cells were cultured at 37° C. in air for from 72 to 96 hours. Subsequently, the cells were observed under microscope and drug precipitation and particular findings were investigated and recorded. And then, the 96-well plate was placed at room temperature for 30 minutes, added with 20 μL/well of CellTiter-Glo solution (Cat No. G7573, Promega) and shaken for 10 minutes, followed by being subjected to the measurement using PHERAstar™ microplate reader (BMG LABTECH) according to the supplier's general luminometer protocol. Wells where only culture liquid added without cell plating were used as a negative control, whereas wells where culture liquid containing 0.1% DMSO instead of the compounds listed in Examples were used as a positive control.

STAT3 = target: T1, STAT3 (Homo sapiens, UniProt P40763); assay: STAT3 reporter gene assay (luciferase), LNCaP stable cell line (pSTAT3-TA-luc), IL-6 stimulation
T1 construct: plasmid pSTAT3-TA-luc), which contains a stably operating STAT3 promoter; endogenous in cells
Summary of the method: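 LNCaP cells stably carrying pSTAT3-TA-luc, in RPMI1640 with 3% DCC-FBS, were treated with compound and then stimulated with 10 ng/mL IL-6 for 24–48 h at 37 °C. Luciferase activity was measured in lysates. A parallel plate measured viability by CellTiter-Glo, with stimulated 0.1% DMSO wells as the positive control.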

LNCaP = assay: Cell growth inhibition assay, prostate cancer cell line LNCaP (medium with 10 ng/mL IL-6); conditions: Homo sapiens, medium supplemented with 10 ng/mL of IL-6, 10,000 cells/well

T1 sequence (P40763 whole entry): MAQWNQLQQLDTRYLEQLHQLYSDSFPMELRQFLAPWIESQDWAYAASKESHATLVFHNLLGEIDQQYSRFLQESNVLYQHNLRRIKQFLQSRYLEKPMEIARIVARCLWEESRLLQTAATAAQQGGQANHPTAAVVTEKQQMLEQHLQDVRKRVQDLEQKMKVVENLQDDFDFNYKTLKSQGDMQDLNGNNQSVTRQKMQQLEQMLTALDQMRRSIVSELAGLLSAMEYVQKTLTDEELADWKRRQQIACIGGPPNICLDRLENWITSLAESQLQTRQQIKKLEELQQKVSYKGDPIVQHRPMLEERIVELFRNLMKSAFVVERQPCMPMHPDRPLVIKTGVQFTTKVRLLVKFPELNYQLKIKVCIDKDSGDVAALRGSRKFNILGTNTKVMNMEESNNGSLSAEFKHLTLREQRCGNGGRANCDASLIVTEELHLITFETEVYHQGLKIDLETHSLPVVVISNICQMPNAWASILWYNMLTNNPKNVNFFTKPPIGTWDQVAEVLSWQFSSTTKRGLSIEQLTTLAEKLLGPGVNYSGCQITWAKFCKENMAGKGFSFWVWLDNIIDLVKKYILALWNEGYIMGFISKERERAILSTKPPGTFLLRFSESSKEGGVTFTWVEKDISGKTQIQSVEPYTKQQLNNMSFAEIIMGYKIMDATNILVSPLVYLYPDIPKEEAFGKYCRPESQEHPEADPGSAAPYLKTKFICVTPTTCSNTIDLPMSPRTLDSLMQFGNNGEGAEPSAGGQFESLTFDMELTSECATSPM

| IC50 (MDA-MB-231) [µM] | IC50 (STAT3) [µM] | IC50 (LNCaP) [µM] | SMILES |
| --- | --- | --- | --- |
| 0.84 | 1.1 | 4.8 | CNS(=O)(=O)Nc1ccc2cc(C(=O)Nc3cc(Br)cc(-c4ccc(F)cc4F)c3)[nH]c2c1 [Example 307, N-(5-bromo-2′,4′-difluoro-[1,1′-biphenyl]-3-yl)-6-((N-methylsulfamoyl)amino)-1H-indole-2-carboxamide] |
| 0.09 | 0.22 | 1.1 | COc1cc2cc(C(=O)Nc3cccc(C(C)(C)c4ccc(F)cc4)c3)[nH]c2cc1NS(C)(=O)=O [Example 3, N-(3-(2-(4-fluorophenyl)propan-2-yl)phenyl)-5-methoxy-6-(methylsulfonamido)-1H-indole-2-carboxamide] |
| 1 | 1.5 | 4.4 | CNc1cc(NC(=O)c2cc3ccc(NS(C)(=O)=O)cc3[nH]2)cc(-c2ccc(F)cc2F)c1 [Example 373, N-(2′,4′-difluoro-5-(methylamino)-[1,1′-biphenyl]-3-yl)-6-(methylsulfonamido)-1H-indole-2-carboxamide] |
| 1.17 | 2.4 | 3.5 | CS(=O)(=O)Nc1ccc2cc(C(=O)Nc3cccc(C(F)(F)c4ccccc4)c3)[nH]c2c1 [Example 387, N-(3-(difluoro(phenyl)methyl)phenyl)-6-(methylsulfonamido)-1H-indole-2-carboxamide] |
| 0.39 | 1 | 1.4 | CS(=O)(=O)Nc1ccc2cc(C(=O)Nc3cc(OC(F)F)cc(C4(c5ccc(F)cc5)CC4)c3)[nH]c2c1 [Example 428, N-(3-(difluoromethoxy)-5-(1-(4-fluorophenyl)cyclopropyl)phenyl)-6-(methylsulfonamido)-1H-indole-2-carboxamide] |
| 0.28 | 0.21 | 1.8 | CS(=O)(=O)Nc1ccc2cc(C(=O)Nc3cc(-c4ccsc4)cc(-c4ccc(F)cc4F)c3)[nH]c2c1 [Example 355, N-(2′,4′-difluoro-5-(thiophen-3-yl)-[1,1′-biphenyl]-3-yl)-6-(methylsulfonamido)-1H-indole-2-carboxamide] |
| 0.006 | 0.008 | 0.031 | CC(C)(c1cc(Br)cc(NC(=O)c2cc3cc(NS(C)(=O)=O)ccc3s2)c1)c1cc(OC(F)(F)F)ccc1F [Example 47, N-(3-bromo-5-(2-(2-fluoro-5-(trifluoromethoxy)phenyl)propan-2-yl)phenyl)-5-(methylsulfonamido)benzo[b]thiophene-2-carboxamide] |
| 0.09 | 0.078 | 0.42 | C#Cc1cc(NC(=O)c2cc3cc(NS(C)(=O)=O)ccc3s2)cc(C(C)(C)c2ccc(F)cc2F)c1 [Example 109, N-(3-(2-(2,4-difluorophenyl)propan-2-yl)-5-ethynylphenyl)-5-(methylsulfonamido)benzo[b]thiophene-2-carboxamide] |
| 0.006 | 0.076 | 0.37 | CC(C)(c1ccc(F)cc1)c1cc(Cl)cc(NC(=O)c2cc3cc(NS(C)(=O)=O)ccc3s2)c1 [Example 40, N-(3-chloro-5-(2-(4-fluorophenyl)propan-2-yl)phenyl)-5-(methylsulfonamido)benzo[b]thiophene-2-carboxamide] |
| 0.034 | 0.26 | 1.4 | COc1cccc(C(C)(C)c2cccc(NC(=O)c3cc4ccc(NS(C)(=O)=O)cc4[nH]3)c2)c1 [Example 12, N-(3-(2-(3-methoxyphenyl)propan-2-yl)phenyl)-6-(methylsulfonamido)-1H-indole-2-carboxamide] |
| 2.6 | > 10 | > 10 | CS(=O)(=O)Nc1ccc2cc(C(=O)Nc3cc(-c4ccc(C#N)nc4)cc(-c4ccc(F)cc4F)c3)[nH]c2c1 [Example 359, N-(5-(6-cyanopyridin-3-yl)-2′,4′-difluoro-[1,1′-biphenyl]-3-yl)-6-(methylsulfonamido)-1H-indole-2-carboxamide] |
| 1.6 | 7.2 | 6.4 | Cc1c(C(=O)Nc2cccc(-c3ccc(F)cc3F)c2)sc2ccc(NS(C)(=O)=O)cc12 [Example 243, N-(2′,4′-difluoro-[1,1′-biphenyl]-3-yl)-3-methyl-5-(methylsulfonamido)benzo[b]thiophene-2-carboxamide] |
| 0.024 | 0.028 | 0.11 | COc1cc(OC(F)(F)F)cc(C(C)(C)c2cc(NC(=O)c3cc4cc(NS(C)(=O)=O)ccc4s3)cc(OC(F)F)c2)c1 [Example 41, N-(3-(difluoromethoxy)-5-(2-(3-methoxy-5-(trifluoromethoxy)phenyl)propan-2-yl)phenyl)-5-(methylsulfonamido)benzo[b]thiophene-2-carboxamide] |
| 0.35 | 0.31 | 2.4 | CC(C)(c1cccc(NC(=O)c2cc3ccc(NS(C)(=O)=O)cc3[nH]2)c1)c1ccccc1F [Example 7, N-(3-(2-(2-fluorophenyl)propan-2-yl)phenyl)-6-(methylsulfonamido)-1H-indole-2-carboxamide] |
| > 10 | 6.2 | > 10 | CS(=O)(=O)Nc1ccc2cc(C(=O)Nc3cc(C(=O)N4CCCCC4)cc(-c4ccc(F)cc4F)c3)[nH]c2c1 [Example 320, N-(2′,4′-difluoro-5-(piperidine-1-carbonyl)-[1,1′-biphenyl]-3-yl)-6-(methylsulfonamido)-1H-indole-2-carboxamide] |
| 0.094 | 0.26 | 1.1 | C=C(c1ccccc1)c1cccc(NC(=O)c2cc3cc(NS(C)(=O)=O)ccc3s2)c1 [Example 423, 5-(methylsulfonamido)-N-(3-(1-phenylvinyl)phenyl)benzo[b]thiophene-2-carboxamide] |
| 0.02 | 0.23 | 0.72 | COc1cc2cc(C(=O)Nc3cc(Br)cc(-c4ccc(F)cc4F)c3)[nH]c2cc1NS(C)(=O)=O [Example 303, N-(5-bromo-2′,4′-difluoro-[1,1′-biphenyl]-3-yl)-5-methoxy-6-(methylsulfonamido)-1H-indole-2-carboxamide] |
| 0.14 | 3.6 | 3.7 | CS(=O)(=O)Nc1ccc2cc(C(=O)Nc3cc(-c4ccc(F)cc4F)cc(C(F)(F)F)c3)[nH]c2c1 [Example 313, N-(2′,4′-difluoro-5-(trifluoromethyl)-[1,1′-biphenyl]-3-yl)-6-(methylsulfonamido)-1H-indole-2-carboxamide] |
| > 10 | > 10 | > 10 | CS(=O)(=O)Nc1ccc2cc(C(=O)Nc3cc(-c4ccc(O)nc4)cc(-c4ccc(F)cc4F)c3)[nH]c2c1 [Example 364, N-(2′,4′-difluoro-5-(6-hydroxypyridin-3-yl)-[1,1′-biphenyl]-3-yl)-6-(methylsulfonamido)-1H-indole-2-carboxamide] |
| 4.6 | 3.6 | 7 | COc1cc(NC(=O)c2sc3cc(NS(C)(=O)=O)ccc3c2C)cc(-c2ccc(F)cc2F)c1 [Example 316, N-(2′,4′-difluoro-5-methoxy-[1,1′-biphenyl]-3-yl)-3-methyl-6-(methylsulfonamido)benzo[b]thiophene-2-carboxamide] |
